From patent US4987140A, “Pyridines” (Roussel Uclaf, priority 1987, dated 1991)

Tested on: chronic-arthritis with adjuvant (increase in volume of the rear paws)
Assay: Anti-inflammatory activity: chronic-arthritis with adjuvant (preventative treatment)
Type: in vivo, rat
Details: male rats aged 42 to 50 days, intra-plantar Freund type adjuvant, product orally from day 0 up to the day before killing (day 17), 24480 min
Method: Anti-inflammatory activity: chronic-arthritis with adjuvant (preventative treatment)
In the rat, the injection of Freund type adjuvant in a rear paw causes the rapid appearance of a primary inflammatory lesion in this paw and then, after a latency period of 13 to 15 days, the start up of a secondary arthritic affection, particularly in the other rear paw. The test was carried out on male rats aged 42 to 50 days which received an intra-plantar injection of 0.1 ml of "Freund" type adjuvant (suspension in vaseline oil of 6 mg per ml of killed mycobacterium butyricum). The animals received the product orally from day 0 (day of injection of adjuvant) up to the day before they were killed, which occured on day 17. Control arthritic animals and control normal animals received only the vehicle. The criteria of appreciation of the activity of the substances studied was the increases in volume of the injected rear paws (primary and secondary inflammation) and the non-injected ones (secondary inflammation)by comparison with the average volume of the corresponding paws of normal controls. The DA50 was determined, that is to say, the dose which reduced by 50% the increase in volume of the rear paws of the treated animals in comparison with the control animals.

Structure (SMILES): Cc1c(-c2ccccc2)nc(C(F)(F)F)c(C(=O)Nc2nccs2)c1O [Example 1, 4-hydroxy-5-methyl-6-phenyl-N-(2-thiazolyl)-2-trifluoromethyl-3-pyridine carboxamide]
- DA50 (dose which reduced by 50% the increase in volume of the rear paws of the treated animals in comparison with the control animals): 0.3 mg/k

Structure (SMILES): O=C(Nc1nccs1)c1c(C(F)(F)F)nc(-c2ccccc2)c(-c2ccccc2)c1O [Example 3, 5,6-diphenyl-4-hydroxy-N-(2-thiazolyl)-2-trifluoromethyl-3-pyridine carboxamide]
- DA50 (dose which reduced by 50% the increase in volume of the rear paws of the treated animals in comparison with the control animals): 15 mg/k
